Where two headings read alike, the source gives them in different places.
Tests used:
[1] = target: unphosphorylated c-FMS kinase (uFMS, Seq. ID no. 1) (Homo sapiens (Human), UniProt P07333); assay: uFMS kinase assay (ADP production coupled to pyruvate kinase/lactate dehydrogenase); type: biochemical; settings: enzymatic assay, ATP 500 μM
Procedure, shortened: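 Unphosphorylated FMS (10 nM) with polyE4Y 1 mg/mL and 500 μM ATP in 90 mM Tris pH 7.5, 10 mM MgCl2, 0.2% octyl-glucoside, 1% DMSO. ADP formation was coupled via pyruvate kinase/LDH to NADH oxidation, followed at A340 for 4 h at 30° C.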

[2] = target: unphosphorylated c-KIT kinase (uKIT, Seq. ID no. 2) (Homo sapiens (Human), UniProt P10721); assay: uKit kinase assay (coupled pyruvate kinase/lactate dehydrogenase); type: biochemical; settings: enzymatic assay, ATP 2000 μM
Sequence of unphosphorylated c-KIT kinase (uKIT, Seq. ID no. 2) (P10721 other isoform, or with tags, fused parts or gaps): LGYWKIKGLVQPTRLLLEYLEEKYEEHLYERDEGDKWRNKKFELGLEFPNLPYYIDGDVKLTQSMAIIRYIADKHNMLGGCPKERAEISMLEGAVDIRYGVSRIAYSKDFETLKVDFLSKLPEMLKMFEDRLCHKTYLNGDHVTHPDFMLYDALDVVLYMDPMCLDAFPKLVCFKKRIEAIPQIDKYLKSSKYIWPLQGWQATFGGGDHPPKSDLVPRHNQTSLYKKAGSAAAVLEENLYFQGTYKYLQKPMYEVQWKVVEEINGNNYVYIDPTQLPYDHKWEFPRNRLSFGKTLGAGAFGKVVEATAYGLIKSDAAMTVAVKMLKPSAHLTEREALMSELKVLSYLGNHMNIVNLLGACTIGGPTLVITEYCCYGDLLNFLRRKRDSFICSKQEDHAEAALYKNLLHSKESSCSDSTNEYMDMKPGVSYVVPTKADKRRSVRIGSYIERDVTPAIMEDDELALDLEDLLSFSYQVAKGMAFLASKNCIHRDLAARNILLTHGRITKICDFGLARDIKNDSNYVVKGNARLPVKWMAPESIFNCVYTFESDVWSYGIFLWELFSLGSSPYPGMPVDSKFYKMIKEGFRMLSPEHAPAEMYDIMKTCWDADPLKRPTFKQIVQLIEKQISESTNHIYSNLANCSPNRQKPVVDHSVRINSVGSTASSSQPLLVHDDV
Description: uKit Kinase (Seq. ID No. 2) Assay
Activity of unphosphorylated c-KIT kinase (uKIT, Seq. ID no. 2) was determined by following the production of ADP from the KIT kinase reaction with ATP and poly E4Y as substrates through coupling with the pyruvate kinase/lactate dehydrogenase system (e.g., Schindler et al. Science (2000) 289: 1938-1942). In this assay, the oxidation of NADH (thus the decrease at A340 nm) was continuously monitored spectrophometrically. The reaction mixture (100 μl) contained unphosphorylated KIT (12 nM), polyE4Y (1 mg/mL), MgCl2 (10 mM), pyruvate kinase (4 units), lactate dehydrogenase (0.7 units), phosphoenol pyruvate (1 mM), and NADH (0.28 mM) and ATP (2000 μM) in 90 mM Tris buffer containing 0.2% octyl-glucoside and 1% DMSO, pH 7.5. The inhibition reaction was started by mixing serial diluted test compound with the above reaction mixture. The absorption at 340 nm was monitored continuously for 4 hours at 30° C. on Synergy 2 plate reader (BioTech). Reaction rates around 3 to 4 h time frame were used to calculate % inhibitions, from which IC50 values were generated.
uKit with N-Terminal GST Fusion Used for Screening (Seq ID No. 2)

[3] = target: unphosphorylated PDGFRβ kinase (uPDGFRβ, Seq. ID No. 3) (Homo sapiens (Human), UniProt P09619); assay: Unphosphorylated PDGFRβ kinase assay (coupled pyruvate kinase/lactate dehydrogenase); type: biochemical; settings: enzymatic assay, ATP 500 μM
Sequence of unphosphorylated PDGFRβ kinase (uPDGFRβ, Seq. ID No. 3) (P09619 557-1106): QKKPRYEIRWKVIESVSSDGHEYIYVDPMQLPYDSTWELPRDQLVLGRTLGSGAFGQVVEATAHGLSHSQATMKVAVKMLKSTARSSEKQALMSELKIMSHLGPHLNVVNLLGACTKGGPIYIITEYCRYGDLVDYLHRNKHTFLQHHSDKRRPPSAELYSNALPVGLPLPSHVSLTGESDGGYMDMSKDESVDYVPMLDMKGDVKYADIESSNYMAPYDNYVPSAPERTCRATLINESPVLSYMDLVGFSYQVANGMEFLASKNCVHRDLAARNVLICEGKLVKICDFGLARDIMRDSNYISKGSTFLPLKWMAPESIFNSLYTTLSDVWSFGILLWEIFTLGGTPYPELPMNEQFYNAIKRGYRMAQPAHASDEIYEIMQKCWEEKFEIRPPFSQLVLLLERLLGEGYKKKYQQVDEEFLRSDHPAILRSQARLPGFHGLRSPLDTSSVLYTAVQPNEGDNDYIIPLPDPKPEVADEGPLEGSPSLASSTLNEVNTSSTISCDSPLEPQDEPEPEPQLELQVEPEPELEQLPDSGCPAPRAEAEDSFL
Description: Unphosphorylated PDGFRβ (uPDGFRβ) Kinase (Seq. ID No. 3) Assay
Activity of unphosphorylated PDGFRβ kinase (uPDGFRβ, Seq. ID No. 3) was determined by following the production of ADP from the kinase reaction with ATP and poly E4Y as substrates through coupling with the pyruvate kinase/lactate dehydrogenase system (e.g., Schindler et al. Science (2000) 289: 1938-1942). In this assay, the oxidation of NADH (thus the decrease at A340 nm) was continuously monitored spectrophometrically. The reaction mixture (100 μL) contained PDGFRβ (DeCode, 15.7 nM), polyE4Y (2.5 mg/mL), MgCl2 (10 mM), pyruvate kinase (4 units), lactate dehydrogenase (0.7 units), phosphoenol pyruvate (1 mM) and NADH (0.28 mM) and ATP (500 μM) in a 90 mM Tris buffer containing 0.2% octyl-glucoside and 1% DMSO, at pH 7.5. The inhibition reaction was started by mixing serial diluted test compound with the above reaction mixture. The absorption at 340 nm was monitored continuously for 4 h at 30° C. on a Polarstar Optima or Synergy 2 plate reader. The reaction rate was calculated using the 1.5 to 2.5 h time frame. Percent inhibition was obtained by comparison of reaction rate with that of a control (i.e., with no test compound). IC50 values were calculated from a series of percent inhibition values determined at a range of inhibitor concentrations using software routines as implemented in the GraphPad Prism software package.
uPDGFRβ Kinase Sequence (Residues 557-1106) Used for Screening (Seq ID No. 3)

M-NFS-60 cells = assay: M-NFS-60 cell proliferation assay (resazurin); type: cell-based; settings: 67 h incubation
Procedure, shortened: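 Cells kept in medium containing 20 ng/mL mouse recombinant M-CSF. Fluorescence was read at ex 540/em 600 nm, and IC50 was fitted from percent inhibition across a range of inhibitor concentrations.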

osteoclast precursors = assay: Osteoclast tartrate-resistant acid phosphatase assay; type: cell-based; settings: 7-14 days, RANKL and M-CSF

Sequence of unphosphorylated c-FMS kinase (uFMS, Seq. ID no. 1) (P07333 538-972): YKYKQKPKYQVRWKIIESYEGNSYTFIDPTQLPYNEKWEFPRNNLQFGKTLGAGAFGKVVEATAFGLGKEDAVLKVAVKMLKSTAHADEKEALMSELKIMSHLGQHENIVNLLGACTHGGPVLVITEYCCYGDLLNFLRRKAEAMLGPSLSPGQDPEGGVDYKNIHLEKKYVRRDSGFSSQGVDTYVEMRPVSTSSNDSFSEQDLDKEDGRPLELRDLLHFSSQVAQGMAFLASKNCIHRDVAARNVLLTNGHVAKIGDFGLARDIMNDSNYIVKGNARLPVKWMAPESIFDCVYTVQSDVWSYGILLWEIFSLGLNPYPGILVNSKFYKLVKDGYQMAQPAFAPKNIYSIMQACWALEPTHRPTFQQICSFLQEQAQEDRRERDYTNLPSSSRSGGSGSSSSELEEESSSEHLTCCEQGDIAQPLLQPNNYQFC

| SMILES | IC50 ([1]; read-out: uFMS) | IC50 [2] | IC50 [3] | IC50 (osteoclast precursors; Osteoclast) | IC50 (M-NFS-60 cells) | IC50 ([1]; uFMS) | IC50 (osteoclast precursors) |
| --- | --- | --- | --- | --- | --- | --- | --- |
| Cc1nc(NC(=O)N2CCN([C@@H]3CCOC3)C2=O)ccc1Oc1ccnc(-c2cnn(C)c2)c1 [Example 28, (R)—N-(6-methyl-5-((2-(1-methyl-1H-pyrazol-4-yl)pyridin-4-yl)oxy)pyridin-2-yl)-2-oxo-3-(tetrahydrofuran-3-yl)imidazolidine-1-carboxamide] | – | 100 to 1000 nM | > 1000 nM | – | 10 to 100 nM | < 10 nM | < 10 nM |
| Cc1nc(NC(=O)N2CC(C)(C)N(C3CCCCC3)C2=O)ccc1Oc1ccnc(-c2cnn(C)c2)c1 [Example 32, 3-cyclohexyl-4,4-dimethyl-N-(6-methyl-5-((2-(1-methyl-1H-pyrazol-4-yl)pyridin-4-yl)oxy)pyridin-2-yl)-2-oxoimidazolidine-1-carboxamide] | 100 to 1000 nM | 100 to 1000 nM | > 1000 nM | – | – | – | – |
| CCN1CCN(C(=O)Nc2ccc(Oc3ccnc(-c4cnn(C)c4)c3)cn2)C1=O [Example 45, 3-ethyl-N-(5-((2-(1-methyl-1H-pyrazol-4-yl)pyridin-4-yl)oxy)pyridin-2-yl)-2-oxoimidazolidine-1-carboxamide] | < 10 nM | 10 to 100 nM | > 1000 nM | < 10 nM | 10 to 100 nM | – | – |
| Cn1cc(-c2cc(Oc3ccc(NC(=O)N4CCN(C5CC5)C4=O)nc3)ccn2)cn1 [Example 46, 3-cyclopropyl-N-(5-((2-(1-methyl-1H-pyrazol-4-yl)pyridin-4-yl)oxy)pyridin-2-yl)-2-oxoimidazolidine-1-carboxamide] | < 10 nM | 10 to 100 nM | 100 to 1000 nM | < 10 nM | 10 to 100 nM | – | – |
| Cn1cc(-c2cc(Oc3ccc(NC(=O)N4CCN(C5COC5)C4=O)nc3)ccn2)cn1 [Example 50, N-(5-((2-(1-methyl-1H-pyrazol-4-yl)pyridin-4-yl)oxy)pyridin-2-yl)-3-(oxetan-3-yl)-2-oxoimidazolidine-1-carboxamide] | 10 to 100 nM | 10 to 100 nM | > 1000 nM | 10 to 100 nM | 10 to 100 nM | – | – |
| Cc1cc(-c2cc(Oc3ccc(NC(=O)N4CCN(C5CCOCC5)C4=O)nc3)ccn2)ccn1 [Example 51, N-(5-((2′-methyl-[2,4′-bipyridin]-4-yl)oxy)pyridin-2-yl)-2-oxo-3-(tetrahydro-2H-pyran-4-yl)imidazolidine-1-carboxamide] | 10 to 100 nM | 10 to 100 nM | > 1000 nM | 100 to 1000 nM | 10 to 100 nM | – | – |
| COC[C@@H](C)N1CCN(C(=O)Nc2ccc(Oc3ccnc(-c4cnn(C)c4)c3)cn2)C1=O [Example 59, (R)-3-(1-methoxypropan-2-yl)-N-(5-((2-(1-methyl-1H-pyrazol-4-yl)pyridin-4-yl)oxy)pyridin-2-yl)-2-oxoimidazolidine-1-carboxamide] | < 10 nM | 10 to 100 nM | 100 to 1000 nM | < 10 nM | < 10 nM | – | – |
| Cn1cc(-c2cc(Oc3cc(F)c(NC(=O)N4CCN(CC(O)C(C)(C)C)C4=O)cc3Cl)ccn2)cn1 (centres unmarked) [Example 112, N-(5-chloro-2-fluoro-4-((2-(1-methyl-1H-pyrazol-4-yl)pyridin-4-yl)oxy)phenyl)-3-(2-hydroxy-3,3-dimethylbutyl)-2-oxoimidazolidine-1-carboxamide] | 10 to 100 nM | 10 to 100 nM | 100 to 1000 nM | – | 100 to 1000 nM | – | – |

The next lines start with results.

| IC50 ([1]; read-out: uFMS) | IC50 [2] | IC50 [3] | IC50 (osteoclast precursors; Osteoclast) | SMILES | IC50 (M-NFS-60 cells) | IC50 ([1]; uFMS) | IC50 (osteoclast precursors) |
| --- | --- | --- | --- | --- | --- | --- | --- |
| 10 to 100 nM | 10 to 100 nM | > 1000 nM | < 10 nM | CC(C)N1CCN(C(=O)Nc2ncc(Oc3ccnc(-c4cnn(C)c4)c3)cn2)C1=O [Example 2, 3-isopropyl-N-(5-((2-(1-methyl-1H-pyrazol-4-yl)pyridin-4-yl)oxy)pyrimidin-2-yl)-2-oxoimidazolidine-1-carboxamide] | 10 to 100 nM | – | – |
| 10 to 100 nM | 10 to 100 nM | 100 to 1000 nM | 10 to 100 nM | COC(C)(C)CCN1CCN(C(=O)Nc2ccc(Oc3ccnc(-c4cnn(C)c4)c3)cn2)C1=O [Example 24, 3-(3-methoxy-3-methylbutyl)-N-(5-((2-(1-methyl-1H-pyrazol-4-yl)pyridin-4-yl)oxy)pyridin-2-yl)-2-oxoimidazolidine-1-carboxamide] | 10 to 100 nM | – | – |
| < 10 nM | < 10 nM | 100 to 1000 nM | < 10 nM | Cn1cc(-c2cc(Oc3ccc(NC(=O)N4CCN(C5CCCC5)C4=O)nc3)ccn2)cn1 [Example 30, 3-cyclopentyl-N-(5-((2-(1-methyl-1H-pyrazol-4-yl)pyridin-4-yl)oxy)pyridin-2-yl)-2-oxoimidazolidine-1-carboxamide] | < 10 nM | – | – |
| 10 to 100 nM | 100 to 1000 nM | > 1000 nM | – | Cn1cc(-c2cc(Oc3ccc(NC(=O)N4CC(C)(C)N(C5CCCCC5)C4=O)nc3)ccn2)cn1 [Example 31, 3-cyclohexyl-4,4-dimethyl-N-(5-((2-(1-methyl-1H-pyrazol-4-yl)pyridin-4-yl)oxy)pyridin-2-yl)-2-oxoimidazolidine-1-carboxamide] | > 1000 nM | – | – |
| 10 to 100 nM | 100 to 1000 nM | > 1000 nM | 10 to 100 nM | CN1CCN(C(=O)Nc2ccc(Oc3ccnc(-c4cnn(C)c4)c3)cn2)C1=O [Example 44, 3-methyl-N-(5-((2-(1-methyl-1H-pyrazol-4-yl)pyridin-4-yl)oxy)pyridin-2-yl)-2-oxoimidazolidine-1-carboxamide] | 100 to 1000 nM | – | – |
| < 10 nM | 100 to 1000 nM | > 1000 nM | < 10 nM | Cc1nc(NC(=O)N2CCN(C3CC3)C2=O)ccc1Oc1ccnc(-c2cnn(C)c2)c1 [Example 47, 3-cyclopropyl-N-(6-methyl-5-((2-(1-methyl-1H-pyrazol-4-yl)pyridin-4-yl)oxy)pyridin-2-yl)-2-oxoimidazolidine-1-carboxamide] | 10 to 100 nM | – | – |
| < 10 nM | < 10 nM | 100 to 1000 nM | < 10 nM | Cn1cc(-c2cc(Oc3ccc(NC(=O)N4CCN(CC(F)(F)F)C4=O)nc3)ccn2)cn1 [Example 48, N-(5-((2-(1-methyl-1H-pyrazol-4-yl)pyridin-4-yl)oxy)pyridin-2-yl)-2-oxo-3-(2,2,2-trifluoroethyl)imidazolidine-1-carboxamide] | 10 to 100 nM | – | – |
| 10 to 100 nM | > 1000 nM | > 1000 nM | 100 to 1000 nM | Cc1ccc(-c2cc(Oc3ccc(NC(=O)N4CCN(CC(F)(F)F)C4=O)nc3C)ccn2)cn1 [Example 53, N-(6-methyl-5-((6′-methyl-[2,3′-bipyridin]-4-yl)oxy)pyridin-2-yl)-2-oxo-3-(2,2,2-trifluoroethyl)imidazolidine-1-carboxamide] | 10 to 100 nM | – | – |
| 100 to 1000 nM | > 1000 nM | > 1000 nM | 100 to 1000 nM | Cn1cc(-c2cc(Oc3ccc(NC(=O)N4CCN(CC#N)C4=O)nc3)ccn2)cn1 [Example 55, 3-(cyanomethyl)-N-(5-((2-(1-methyl-1H-pyrazol-4-yl)pyridin-4-yl)oxy)pyridin-2-yl)-2-oxoimidazolidine-1-carboxamide] | 100 to 1000 nM | – | – |
| 10 to 100 nM | 10 to 100 nM | 100 to 1000 nM | 10 to 100 nM | Cc1ncc(-c2cc(Oc3ccc(NC(=O)N4CCN(C5CCOCC5)C4=O)nc3)ccn2)s1 [Example 60, N-(5-((2-(2-methylthiazol-5-yl)pyridin-4-yl)oxy)pyridin-2-yl)-2-oxo-3-(tetrahydro-2H-pyran-4-yl)imidazolidine-1-carboxamide] | 10 to 100 nM | – | – |
